Assay results: patent US9550793B2, “Spirocyclic compounds, compositions and medicinal applications thereof” (Advinus Therapeutics Limited, priority 2012, dated 2017)

Target: T1, recombinant human DGAT1 (hDGAT1) (Homo sapiens, UniProt O75907)
T1 construct: host or cells: Sf9 insect cells (baculovirus expression system), used as membrane preparation
T1 sequence (O75907 1-488): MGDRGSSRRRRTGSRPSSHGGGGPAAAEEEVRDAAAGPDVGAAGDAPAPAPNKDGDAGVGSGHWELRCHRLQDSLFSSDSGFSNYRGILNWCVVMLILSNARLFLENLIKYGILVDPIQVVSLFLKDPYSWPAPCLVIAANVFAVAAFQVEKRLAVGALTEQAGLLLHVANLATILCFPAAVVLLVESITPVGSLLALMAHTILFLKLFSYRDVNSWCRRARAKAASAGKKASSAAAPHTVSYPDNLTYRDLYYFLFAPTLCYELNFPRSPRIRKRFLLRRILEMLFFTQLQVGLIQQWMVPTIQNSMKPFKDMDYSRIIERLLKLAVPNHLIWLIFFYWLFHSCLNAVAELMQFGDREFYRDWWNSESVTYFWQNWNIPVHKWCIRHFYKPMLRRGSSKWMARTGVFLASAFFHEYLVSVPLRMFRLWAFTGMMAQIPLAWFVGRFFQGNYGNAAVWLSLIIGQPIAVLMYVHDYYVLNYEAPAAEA
Experiment: Membrane-based recombinant hDGAT1 inhibitory activity using radiometry method (Method B)
Assay type: biochemical
Conditions: values marked *: Method B (radiometry); Sf9 membranes expressing hDGAT1
Experimental: Measurement of Membrane-Based Recombinant hDGAT1 Inhibitory Activity Using Radiometry Method (Method B):
The determination of recombinant human DGAT1 (hDGAT1) activity was carried out using a Radiometry based assay system based on literature report [European Journal of Medicinal Chemistry (2012), August; 54:324-42]. In brief, baculovirus expression system (Sf9) membranes expressing hDGAT1 were employed for the membrane based assay.
Radiometry hDGAT1 assays were performed using 1 μg of the hDGAT1, pre-incubated with 100 μl of the assay buffer [100 mM Tris-HCl (pH 7.5), 250 mM sucrose, and 1.25 mg/ml fatty acid free BSA] containing a known concentration of the inhibitor and supplemented with 300 μM of 1,2-dioleoylglycerol. The hDGAT1 reaction was initiated following an addition of 16.8 nCi of [14C]-oleoyl CoA. The reaction was terminated after 30 minutes of incubation at 37° C. using 300 μl alkaline ethanol stop solution mix (AESSM) [12.5% of 100% non-denatured ethanol, 10% deionized water, 2.5% NaOH, and 75% stop solution (78.4% isopropanol, 19.6% n-heptane, 2% deionized water)]. The ^14C triglyceride formed in this reaction was extracted using 600 μl of heptane. 250 μl of this extracted heptane was added to scintillation fluid and subjected to radioactivity measurement.

| Compound | IC50 [nM] |
| --- | --- |
| O=C(O)CC1CC2(CCN(c3ccc(NC(=O)c4nnc(Nc5ccc(F)c(F)c5)o4)cn3)CC2)C1 [Example B32, 2-[7-[5-[[5-(3,4-difluoroanilino)-1,3,4-oxadiazole-2-carbonyl]amino]-2-pyridyl]-7-azaspiro[3.5]nonan-2-yl]acetic acid] | 6.9 |
| O=C(O)CC1CC2(CCN(c3ccc(NC(=O)c4nnc(Nc5ccccc5F)o4)cn3)CC2)C1 [Example B33, 2-[7-[5-[[5-(2-fluoroanilino)-1,3,4-oxadiazole-2-carbonyl]amino]-2-pyridyl]-7-azaspiro[3.5]nonan-2-yl]acetic acid] | 26 |
| O=C(Nc1ccc(N2CCC3(CC2)CC(C(=O)O)C3)nc1)c1nnc(Nc2ccccc2)o1 [Example B34, 7-[5-[(5-anilino-1,3,4-oxadiazole-2-carbonyl)amino]-2-pyridyl]-7-azaspiro[3.5]nonane-2-carboxylic acid] | 24 |
| O=C(Nc1ccc(N2CCC3(CC2)CC(C(=O)O)C3)nc1)c1nnc(Nc2cccc(F)c2)o1 [Example B35, 7-[5-[[5-(3-fluoroanilino)-1,3,4-oxadiazole-2-carbonyl]amino]-2-pyridyl]-7-azaspiro[3.5]nonane-2-carboxylic acid] | 19 |
| O=C(Nc1ccc(N2CCC3(CC2)CC(C(=O)O)C3)nc1)c1nnc(Nc2ccc(Cl)cc2)o1 [Example B36, 7-[5-[[5-(4-chloroanilino)-1,3,4-oxadiazole-2-carbonyl]amino]-2-pyridyl]-7-azaspiro[3.5]nonane-2-carboxylic acid] | 25 |
| O=C(Nc1ccc(N2CCC3(CC2)CC(C(=O)O)C3)nc1)c1nnc(Nc2cccc(C(F)(F)F)c2)o1 [Example B37, 7-[5-[[5-[3-(trifluoromethyl)anilino]-1,3,4-oxadiazole-2-carbonyl]amino]-2-pyridyl]-7-azaspiro[3.5]nonane-2-carboxylic acid] | 22 |
| O=C(O)CC1CC2(CCN(c3ccc(NC(=O)c4nnc(Nc5ccccc5F)o4)cc3)CC2)C1 [Example B38, 2-[7-[4-[[5-(2-fluoroanilino)-1,3,4-oxadiazole-2-carbonyl]amino]phenyl]-7-azaspiro[3.5]nonan-2-yl]acetic acid] | 50 |
| O=C(O)CC1CC2(CCN(c3ccc(NC(=O)c4nnc(Nc5ccccc5)o4)cc3)CC2)C1 [Example B39, 2-[7-[4-[(5-anilino-1,3,4-oxadiazole-2-carbonyl)amino]phenyl]-7-azaspiro[3.5]nonan-2-yl]acetic acid] | 47 |
| O=C(O)CC1CC2(CCN(c3ccc(NC(=O)c4nnc(Nc5ccc(F)c(F)c5)o4)cc3)CC2)C1 [Example B40, 2-[7-[4-[[5-(3,4-difluoroanilino)-1,3,4-oxadiazole-2-carbonyl]amino]phenyl]-7-azaspiro[3.5]nonan-2-yl]acetic acid] | 20 |
